Test results taken from ChEMBL document CHEMBL5518172, “Discovery of hydroxamate as a promising scaffold dually inhibiting metallo- and serine-β-lactamases” (Eur J Med Chem, 2024).
pIC50: −log10 of the molar value. Calls of active or inactive are those of the source. The rule behind the calls is not given here.

Assays:
Escherichia coli [1] = experiment: Synergistic antibacterial activity against Escherichia coli clinical isolate 10 assessed as fold decrease in meropenem MIC at 64 microg/ml measured after 16 hrs by CLSI protocol based broth microdilution method; assay type: functional; conditions: dose 64 µg/ml
Bacteria [2] = experiment: Inhibition of recombinant IMP-1 (unknown origin) expressed in Escherichia coli BL21 (DE3) cells assessed as reduction in residual activity incubated for 20 hrs; conditions: dose 0.25-5 µM
Escherichia coli [3] = experiment: Antibacterial activity against Escherichia coli BL21 (DE3) harboring metallo-beta-lactamase IMP-1 assessed as inhibition of bacterial growth upto 512 microg/ml by microdilution checkerboard assay; assay type: functional, organism-based; conditions: dose <= 512.0 µg/ml
Bacteria [4] = experiment: Inhibition of recombinant serine beta lactamase OXA-48 (unknown origin) expressed in Escherichia coli BL21 (DE3) cells assessed as reduction in residual activity incubated for 120 min; conditions: dose 0.3-5 µM
Bacteria [5] = experiment: Irreversible inhibition of recombinant metallo-beta-lactamase IMP-1 (unknown origin) expressed in Escherichia coli BL21 (DE3) cells using cefazolin as substrate assessed as reduction in residual activity at 5 uM preincubated for 6 hrs followed by dialysis and measured after 24 hrs
[6] = biological target: Metallo-beta-lactamase type 2 (Bacteria) (UniProt C7C422); experiment: Irreversible inhibition of recombinant NDM-1 (unknown origin) expressed in Escherichia coli BL21 (DE3) cells using meropenem as substrate assessed as reduction in residual activity at 5 uM preincubated for 6 hrs followed by dialysis and measured after 24 hrs
Escherichia coli [7] = experiment: Antibacterial activity against Escherichia coli harboring NDM-1 infected in Kunming mouse model assessed as reduction in bacterial load in liver at 20 mg/kg, ip; assay type: functional, organism-based
Bacteria [8] = experiment: Inhibition of recombinant serine beta lactamase KPC-2 (unknown origin) expressed in Escherichia coli BL21 (DE3) cells assessed as maximal inhibition at 5 uM incubated for 2.5 hrs
Bacteria [9] = experiment: Inhibition of recombinant serine beta lactamase OXA-48 (unknown origin) expressed in Escherichia coli BL21 (DE3) cells using cefazolin as substrate assessed as reduction in residual activity; conditions: dose 0.075-20 µM
Bacteria [10] = experiment: Destabilization of recombinant serine beta lactamase OXA-48 (unknown origin) expressed in Escherichia coli BL21 (DE3) cells assessed as thermal stabilization by measuring melting temperature at 50 uM incubated under 25 to 80 degreeC by SYPRO orange dye based thermal shift assay (reference value: 54.6 degreeC)
Escherichia coli [11] = experiment: Synergistic antibacterial activity against Escherichia coli BL21 (DE3) harboring NDM-1 assessed as reduction in meropenem MIC upto 256 microg/ml in presence of meropenem by microdilution checkerboard assay; assay type: functional, organism-based; conditions: dose <= 256.0 µg/ml
[12] = biological target: Metallo-beta-lactamase type 2 (Bacteria) (UniProt C7C422); experiment: Inhibition of recombinant NDM-1 (unknown origin) expressed in Escherichia coli BL21 (DE3) cells using meropenem as substrate at 20 uM by spectrometric analysis relative to control
[13] = biological target: Metallo-beta-lactamase type 2 (Bacteria) (UniProt C7C422); experiment: Inhibition of recombinant NDM-1 (unknown origin) expressed in Escherichia coli BL21 (DE3) cells assessed as reduction in residual activity incubated for 20 hrs; conditions: dose 0.3-5 µM
Bacteria [14] = experiment: Irreversible inhibition of recombinant serine beta lactamase OXA-48 (unknown origin) expressed in Escherichia coli BL21 (DE3) cells using cefazolin as substrate assessed as reduction in residual activity at 5 uM preincubated for 6 hrs followed by dialysis and measured after 24 hrs
Escherichia coli [15] = experiment: Synergistic antibacterial activity against Escherichia coli BL21 (DE3) harboring serine beta lactamase KPC-2 assessed as reduction in meropenem MIC upto 256 microg/ml in presence of meropenem by microdilution checkerboard assay; assay type: functional, organism-based; conditions: dose <= 256.0 µg/ml
Escherichia coli [16] = experiment: Antibacterial activity against Escherichia coli BL21 (DE3) harboring serine beta lactamase KPC-2 assessed as inhibition of bacterial growth upto 512 microg/ml by microdilution checkerboard assay; assay type: functional, organism-based; conditions: dose <= 512.0 µg/ml
Escherichia coli [17] = experiment: Synergistic antibacterial activity against Escherichia coli clinical isolate 10 assessed as meropenem MIC at 64 microg/ml measured after 16 hrs by CLSI protocol based broth microdilution method (reference value: 512 microg/ml); assay type: functional; conditions: dose 64 µg/ml
Bacteria [18] = experiment: Inhibition of recombinant serine beta lactamase OXA-48 (unknown origin) expressed in Escherichia coli BL21 (DE3) cells assessed as reduction in residual activity at 0.3 to 5 uM; conditions: dose 0.3-5 µM, time 120.0 min, TDE = time-dependent effect
[19] = Inhibition of recombinant serine beta lactamase OXA-48 (unknown origin) expressed in Escherichia coli BL21 (DE3) cells using meropenem as substrate by spectrometric analysis; design: species or system Bacteria
Escherichia coli [20] = experiment: Synergistic antibacterial activity against Escherichia coli BL21 (DE3) harboring NDM-1 assessed as fold decrease in meropenem MIC at 64 microg/ml measured after 16 hrs by CLSI protocol based broth microdilution method; assay type: functional; conditions: dose 64 µg/ml
Bacteria [21] = experiment: Binding affinity to recombinant metallo-beta-lactamase IMP-1 (unknown origin) expressed in Escherichia coli BL21 (DE3) cells assessed as thermal stabilization by measuring change in melting temperature at 50 uM incubated under 25 to 80 degreeC by SYPRO orange dye based thermal shift assay (reference value: 71.9 degreeC)
Bacteria [22] = experiment: Inhibition of recombinant IMP-1 (unknown origin) expressed in Escherichia coli BL21 (DE3) cells assessed as maximal inhibition at 5 uM incubated for 10 hrs
Escherichia coli [23] = experiment: Antibacterial activity against Escherichia coli BL21 (DE3) harboring NDM-1 assessed as inhibition of bacterial growth upto 512 microg/ml by microdilution checkerboard assay; assay type: functional, organism-based; conditions: dose <= 512.0 µg/ml
Escherichia coli [24] = experiment: Synergistic antibacterial activity against Escherichia coli BL21 (DE3) harboring metallo-beta-lactamase IMP-1 assessed as decrease in bacterial colony at 128 microg/ml incubated for 12 hrs in presence of meropenem by imaging analysis; assay type: functional, organism-based; conditions: dose 128.0 µg/ml
Escherichia coli [25] = experiment: Synergistic antibacterial activity against Escherichia coli BL21 (DE3) harboring metallo-beta-lactamase IMP-1 assessed as meropenem MIC at 64 microg/ml measured after 16 hrs by CLSI protocol based broth microdilution method (reference value: 64 microg/ml); assay type: functional; conditions: dose 64 µg/ml
Bacteria [26] = experiment: Inhibition of recombinant serine beta lactamase KPC-2 (unknown origin) expressed in Escherichia coli BL21 (DE3) cells using cefazolin as substrate assessed as residual activity at 20 uM relative to control
Escherichia coli [27] = experiment: Synergistic antibacterial activity against Escherichia coli clinical isolate 10 assessed as decrease in bacterial colony at 128 microg/ml incubated for 12 hrs in presence of meropenem by imaging analysis; assay type: functional, organism-based; conditions: dose 128.0 µg/ml
Escherichia coli [28] = experiment: Synergistic antibacterial activity against Escherichia coli BL21 (DE3) harboring serine beta lactamase KPC-2 assessed as meropenem MIC at 64 microg/ml measured after 16 hrs by CLSI protocol based broth microdilution method (reference value: 16 microg/ml); assay type: functional; conditions: dose 64 µg/ml
Escherichia coli [29] = experiment: Synergistic antibacterial activity against Escherichia coli clinical isolate 07 assessed as meropenem MIC at 64 microg/ml measured after 16 hrs by CLSI protocol based broth microdilution method (reference value: 128 microg/ml); assay type: functional; conditions: dose 64 µg/ml
[30] = biological target: Metallo-beta-lactamase type 2 (Bacteria) (UniProt C7C422); experiment: Inhibition of recombinant NDM-1 (unknown origin) expressed in Escherichia coli BL21 (DE3) cells assessed as maximal inhibition at 5 uM incubated for 5 hrs
[31] = biological target: Metallo-beta-lactamase type 2 (Bacteria) (UniProt C7C422); experiment: Inhibition of recombinant NDM-1 (unknown origin) expressed in Escherichia coli BL21 (DE3) cells assessed as reduction in residual activity at 0.3 to 5 uM; conditions: dose 0.3-5 µM, time 20.0 hrs, TDE = time-dependent effect

Chain of Metallo-beta-lactamase type 2 (Bacteria) (C7C422 whole entry): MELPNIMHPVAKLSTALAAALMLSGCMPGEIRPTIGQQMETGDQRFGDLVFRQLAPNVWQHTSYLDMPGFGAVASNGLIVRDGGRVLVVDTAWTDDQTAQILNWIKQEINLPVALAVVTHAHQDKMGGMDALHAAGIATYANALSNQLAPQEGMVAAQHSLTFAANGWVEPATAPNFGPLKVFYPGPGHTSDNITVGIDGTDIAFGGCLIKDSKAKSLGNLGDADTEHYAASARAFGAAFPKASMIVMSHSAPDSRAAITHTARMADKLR

O=C(CCCc1ccccc1)NOC(=O)OCc1ccccc1
fold change (FC) (Escherichia coli [1]): 2
inhibition (Bacteria [2]): Dose-Dependent Effect
Activity (Escherichia coli [3]): inactive
inhibition (Bacteria [4]): Dose-Dependent Effect
inhibition (Bacteria [5]): Active
inhibition [6]: Active
Activity (Escherichia coli [7]): inactive
inhibition (Bacteria [8]): Active
inhibition (Bacteria [9]): Dose-Dependent Effect
Tm (Bacteria [10]): 53.9 °C
Activity (Escherichia coli [11]): Active
inhibition [12]: > 90%
inhibition [13]: Dose-Dependent Effect
inhibition (Bacteria [14]): Active
Activity (Escherichia coli [15]): Active
Activity (Escherichia coli [16]): inactive
MIC (Escherichia coli [17]): 64 µg/mL
inhibition (Bacteria [18]): Tde
pIC50 [19]: 6.00
fold change (FC) (Escherichia coli [20]): 8
Tm (Bacteria [21]): 74.3 °C
inhibition (Bacteria [22]): Active
Activity (Escherichia coli [23]): inactive
Activity (Escherichia coli [24]): Active
MIC (Escherichia coli [25]): 16 µg/mL
Activity (Bacteria [26]): < 10%
Activity (Escherichia coli [27]): Active
MIC (Escherichia coli [28]): 4 µg/mL
MIC (Escherichia coli [29]): 128 µg/mL
inhibition [30]: Active
inhibition [31]: Tde
